The term IC50 denotes the midpoint of a concentration-inhibition curve.

This is an account of results in patent US4820834A, “Benzodiazepine analogs” (priority 1987, dated 1989).

For assay [1], the target named is T1, CCK receptor (brain, cerebral cortex) (Cavia porcellus, UniProt H0VZC5).
T1 construct: Cerebral cortex was dissected and used as a receptor source; from tissue; host or cells: guinea pig cerebral cortex membranes (male Hartley)
T1 sequence (H0VZC5 1-426): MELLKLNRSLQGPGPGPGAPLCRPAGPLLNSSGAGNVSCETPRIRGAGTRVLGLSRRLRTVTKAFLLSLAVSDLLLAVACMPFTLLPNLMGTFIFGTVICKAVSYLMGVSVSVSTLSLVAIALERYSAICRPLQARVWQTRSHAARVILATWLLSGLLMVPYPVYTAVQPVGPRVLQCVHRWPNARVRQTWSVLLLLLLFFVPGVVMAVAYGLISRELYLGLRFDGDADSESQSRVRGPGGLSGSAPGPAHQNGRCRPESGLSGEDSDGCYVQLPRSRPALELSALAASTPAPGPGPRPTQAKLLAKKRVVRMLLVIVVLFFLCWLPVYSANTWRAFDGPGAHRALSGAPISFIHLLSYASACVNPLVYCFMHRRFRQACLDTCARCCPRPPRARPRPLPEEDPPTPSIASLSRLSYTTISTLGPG
Briefly: biochemical. The settings on record: guinea pig cerebral cortex, ^125 I-CCK-33, 25° C., 2 hours. It is filed as binding, Male Hartley guinea pigs. Put shortly:
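Guinea pig cerebral cortex homogenate as receptor source, with radiolabeled CCK-33 in HEPES buffer containing MgCl2, bacitracin, EGTA and 0.4% BSA. Incubation 2 h at 25°C; bound ligand pelleted by centrifugation and gamma-counted.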

Assay [2] concerns the target T2, CCK receptor (pancreas) (Rattus norvegicus, UniProt P30551).
T2 construct: The whole pancreas was dissected free of fat tissue and was homogenized; from tissue; host or cells: rat pancreas membranes (Sprague-Dawley)
T2 sequence (P30551 1-444): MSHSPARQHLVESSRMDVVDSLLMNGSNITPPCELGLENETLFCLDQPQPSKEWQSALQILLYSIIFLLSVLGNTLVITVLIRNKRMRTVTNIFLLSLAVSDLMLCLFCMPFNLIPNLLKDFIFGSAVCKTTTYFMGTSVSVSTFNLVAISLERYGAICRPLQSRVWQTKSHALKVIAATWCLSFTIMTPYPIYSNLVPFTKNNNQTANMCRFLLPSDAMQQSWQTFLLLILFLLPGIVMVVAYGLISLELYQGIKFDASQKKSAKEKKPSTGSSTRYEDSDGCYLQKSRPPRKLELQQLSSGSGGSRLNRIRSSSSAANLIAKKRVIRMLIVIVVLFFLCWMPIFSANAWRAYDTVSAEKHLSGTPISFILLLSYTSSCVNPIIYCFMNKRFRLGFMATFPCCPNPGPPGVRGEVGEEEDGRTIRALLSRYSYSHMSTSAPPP
Briefly: CCK Receptor Binding (Pancreas): inhibition of ^125 I-CCK-33 binding. Also noted: species or system Male Sprague-Dawley rats. As to conditions: rat pancreas membranes, ^125 I-CCK-33, 37° C., 30 minutes. As to the method: 1. CCK Receptor Binding (Pancreas)
CCK-33 was radiolabeled with ^125 I-Bolton Hunter reagent (2000 Ci/mmole) as described by Sankara et al. (J. Biol. Chem. 254: 9349-9351, 1979). Receptor binding was performed according to Innis and Snyder (Proc. Natl. Acad. Sci. 77: 6917-6921, 1980) with the minor modification of adding the additional protease inhibitors, phenylmethane sulfonyl fluoride and o-phenanthroline.
Male Sprague-Dawley rats (200-350 g) were sacrificed by decapitation. The whole pancreas was dissected free of fat tissue and was homogenized in 20 volumes of ice-cold 50 mM, Tris HCl (pH 7.7 at 25° C.) with a Brinkmann Polytron PT 10. The homogenates were centrifuged at 48,000 g for 10 min. Pellets were resuspended in Tris Buffer, centrifuged as above and resuspended in 200 volumes of binding assay buffer (50 mM Tris HCl, pH 7.7 at 25° C., 5 mM dithiothrietol, 0.1 mM bacitracin, 1.2 mM phenylmethane sulfonyl fluoride and 0.5 mM o-phenanthroline). […] All assays were run in duplicate or triplicate. The reaction mixtures were incubated at 37° C. for 30 minutes and centrifuged in a Beckman Microfuge (4 minutes) immediately after adding 1 ml of ice-cold incubation buffer. The supernatant was aspirated and discarded, pellets were counted with a Beckman gamma 5000. For Scatchard analysis (Ann. N.Y. Acad. Sci. 51: 660, 1949), ^125 I-CCK-33 was progressively diluted with increasing concentrations of CCK-33.

[3] abbreviates: read-out: IC50 ^125 I-CCK Brain.
Setting [4] is: read-out: IC50 ^125 I-CCK Pancreas.

Each structure is given as a SMILES string. Like-named read-outs stand apart in the source and are kept apart here.

`O=C1Nc2ccc(Cl)cc2C(c2ccccc2)=NC1Cc1cccc2ccccc12` (racemic) [Example 17, 7-Chloro-1,3-dihydro-3(RS)-(1-naphthyl)methyl-5-phenyl-2H-1,4-benzodiazepin-2-one]: the 50% inhibitory concentration (IC50) amounted to 100 µM in assay [1] (IC50 ^125 I-CCK Brain) and 23 µM in assay [2] (IC50 ^125 I-CCK Pancreas).
The corresponding values for `O=C1Nc2ccc(Cl)cc2C(c2ccccc2)=NC1Cc1ccc2ccccc2c1` (racemic) [Example 18, 7-Chloro-1,3-dihydro-3(RS)-(2-naphthyl)methyl-5-phenyl-2H-1,4-benzodiazepin-2-one] are 61 µM and 49 µM.
The corresponding values for `O=C1Nc2ccccc2C(c2ccccc2F)=NC1Cc1cccs1` (racemic) [Example 19, 1,3-Dihydro-5-(2-fluorophenyl)-3(RS)-(2-thienyl)methyl-2H-1,4-benzodiazepin-2-one] are over 100 µM and 33 µM.
The corresponding values for `O=C1Nc2ccccc2C(c2ccccc2F)=NC1Cc1c[nH]c2cc(F)ccc12` (racemic) [Example 60, 1,3-Dihydro-3(RS)-[3'-(6'-fluoroindolyl)methyl]-5-o-fluorophenyl-2H-1,4-benzodiazepin-2-one] are 100 µM and 1.3 µM.
Turning to `CN1C(=O)/C(=C/c2ccsc2)N=C(c2ccccc2)c2ccccc21` [95 Z], the IC50 in assay [2] (IC50 ^125 I-CCK Pancreas) worked out at 100 µM.
For the compound `CN1C(=O)[C@@H](Cc2c[nH]c3ccccc23)N=C(c2ccccc2F)c2ccccc21` [Example 4b, 1,3-dihydro-5-(2-fluorophenyl)-3(R)-(3'-indolyl) methyl-1-methyl-2H-1,4-benzodiazepin-2-one], the IC50 in assay [1] (IC50 ^125 I-CCK Brain) stood at 18 µM; in assay [2] (IC50 ^125 I-CCK Pancreas), 0.27 µM.
Consider `O=C1Nc2ccc(Cl)cc2C(c2ccccc2)=N[C@@H]1Cc1c[nH]c2ccccc12` [Example 5, 7-Chloro-1,3-dihydro-3(R)-(3'-indolyl)methyl-5-phenyl-2H-1,4-benzodiazepin-2-one], for which the results for the IC50 in assay [1] (IC50 ^125 I-CCK Brain) and in assay [2] (IC50 ^125 I-CCK Pancreas) were 100 µM and 3.4 µM, respectively.
The corresponding values for `O=C1Nc2ccccc2C(c2ccccc2)=N[C@@H]1Cc1c[nH]c2ccccc12` [Example 6, 1,3-Dihydro-3(R)-(3'-indolyl)methyl-5-phenyl-2H-1,4-benzodiazepin-2-one] are 50 µM and 1.2 µM.
In assay [2] (IC50 ^125 I-CCK Pancreas), `Fc1ccccc1C1=N[C@H](Cc2c[nH]c3ccccc23)CNc2ccccc21` [Example 12, 1,3-Dihydro-5-(2-fluorophenyl)-3(R)-(3'-indolyl)methyl-2H-1,4-benzodiazepin] returned an IC50 of 4 µM.
With `O=C1Nc2ccc(Cl)cc2C(c2ccccc2)=N[C@@H]1Cc1ccccc1` [Example 13, 7-Chloro-1,3-dihydro-3(R)-benzyl-5-phenyl-2H-1,4-benzodiazepin-2-one], in assay [2] (IC50 ^125 I-CCK Pancreas), the IC50 amounted to 80 µM.
For the compound `O=C1Nc2ccc(Cl)cc2C(c2ccccc2)=N[C@@H]1Cc1ccc(OCc2ccccc2)cc1` [Example 16, 7-Chloro-1,3-dihydro-3(R)-(4-benzyloxybenzyl)-5-phenyl-2H-1,4-benzodiazepin-2-one], the IC50 in assay [1] (IC50 ^125 I-CCK Brain) and in assay [2] (IC50 ^125 I-CCK Pancreas) was over 100 µM each time.
Take `O=C1Nc2ccc(Cl)cc2C(c2ccccc2)N[C@@H]1Cc1c[nH]c2ccccc12` (stereo partly drawn) [Example 25, 7-Chloro-1,3,4,5-tetrahydro-3(R)-(3'-indolyl)methyl-5-phenyl-2H-1,4-benzodiazepin-2-one]: the IC50 in assay [1] (setting [3]) is over 100 µM; in assay [2] (setting [4]), 12 µM.
The corresponding values for `O=C1Nc2ccc(Cl)cc2C(c2ccccc2)N[C@H]1Cc1c[nH]c2ccccc12` (stereo partly drawn) [Example 26, 7-Chloro-1,3,4,5-tetrahydro-3(S)-(3'-indolyl)methyl-5-phenyl-2H-1,4-benzodiazepin-2-one] are over 100 µM and 75 µM.
The corresponding values for `CN1C(=O)[C@@H](Cc2cn(C)c3ccccc23)N(C(=O)c2ccc(Cl)cc2)C(c2ccccc2F)c2ccccc21` (stereo partly drawn) [Example 27a, 4-(p-Chlorobenzoyl)-5-(2-fluorophenyl)-3(R)-[3'-(1'-methylindolyl)-methyl]-1-methyl-1,3,4,5-tetrahydro-2H-1,4-benzodiazepin-2-one] are over 100 µM and over 100 µM.
`CC1=N[C@H](Cc2c[nH]c3ccccc23)C(=O)Nc2ccccc21` [Example 29, 1,3-Dihydro-3(R)-(3'-indolyl)methyl-5-methyl-2H-1,4-benzodiazepin-2-one]: the IC50 in assay [2] (setting [4]) was found to be 48 µM.
For `O=C1Nc2ccccc2C(c2ccccc2F)=N[C@H]1Cc1c[nH]c2ccccc12` [Example 32, 1,3-Dihydro-5-(2-fluorophenyl)-3(S)-(3'-indolyl) methyl-2H-1,4-benzodiazepin-2-one], the IC50 in assay [2] (IC50 ^125 I-CCK Pancreas) stood at 10.6 µM.
Same read-out and setting: the same measure for `O=C1[C@@H](Cc2c[nH]c3ccccc23)N=C(c2ccccc2F)c2ccccc2N1CC1CC1` [Example 37, 1-Cyclopropylmethyl-1,3-dihydro-5-(2-fluorophenyl)-3(R)-(3'-indolyl)methyl-2H-1,4-benzodiazepin-2-one]: 2.2 µM; for `CCCCCN1C(=O)[C@@H](Cc2c[nH]c3ccccc23)N=C(c2ccccc2F)c2ccccc21` [Example 38, 1,3-Dihydro-5-(2-fluorophenyl)-3(R)-(3'-indolyl) methyl-1-pentyl-2H-1,4-benzodiazepin-2-one]: 100 µM.
Still for that read-out and setting: as for `O=C1[C@@H](Cc2c[nH]c3ccccc23)N=C(c2ccccc2F)c2ccccc2N1CC(F)(F)F` [Example 40, 1,3-Dihydro-5-(2-fluorophenyl)-3(R)-(3'-indolyl)methyl-1-(2,2,2-trifluoroethyl)-2H-1,4-benzodiazepin-2-one], the figure is 3.6 µM.
Same read-out and setting: as for `CN(C)CCN1C(=O)[C@@H](Cc2c[nH]c3ccccc23)N=C(c2ccccc2F)c2ccccc21` [Example 41, 1,3-Dihydro-1-(2-dimethylaminoethyl)-5-(2-fluorophenyl) 3(R)-(3'-indolyl)methyl-2H-1,4-benzodiazepin-2-one], the figure is 100 µM.
Take `O=C(O)c1ccccc1C1=N[C@H](Cc2c[nH]c3ccccc23)C(=O)Nc2ccccc21` [Example 58, 5-o-Carboxyphenyl-1,3-dihydro-3(R)-(3+-indolyl)methyl-2H-1,4-benzodiazepin-2-one]: the IC50 in assay [2] (IC50 ^125 I-CCK Pancreas) is 18 µM.
Same read-out and setting: the same measure for `NC(=O)CN1C(=O)[C@@H](Cc2c[nH]c3ccccc23)N=C(c2ccccc2F)c2ccccc21` [Example 123, 1-Carboxamidomethyl-1,3-dihydro-3R-(3-indolylmethyl)-5-(2-fluorophenyl)-2H-1,4-benzodiazepin-2-one]: 2.1 µM; for `O=C1Nc2ccccc2C(c2ccccc2)=NC1CC1CNc2ccccc21` (centres unmarked) [Example 199, 3-((2,3-Dihydro-1H-indol-3-yl)methyl)-1,3-dihydro-5-phenyl-2H-1,4-benzodiazepin-2-one]: 3.2 µM.
The same measure, in the same setting: the same measure for `CC(C)CC(NC(=O)OC(C)(C)C)C(=O)N1CC(CC2N=C(c3ccccc3)c3ccccc3NC2=O)c2ccccc21` (centres unmarked) [Example 225, (1-((3-((2,3-Dihydro-2-oxo-5-phenyl-1H-1,4-benzodiazepin-3-yl)methyl)-2,3-dihydro-1H-indol-1-yl)carbonyl)-3-methylbutyl)-carbamic acid-1,1-dimethylethyl ester]: 4.7 µM.
